# Measurements published in patent US20230000829A1, “COMPOSITION FOR SLEEP IMPROVEMENT COMPRISING ERGOTHIONEINE OR SALT THEREOF” (priority 2019, published 2023).
# “Also recorded” adds a separate entry of the source.
# Key:
# Sprague-Dawley (SD) rat = test: Stress sleep disorder model, brain waves during sleep; assay type: in vivo; conditions: stress-induced rats, oral about 20 mg per 1 kg body weight per day
# Method: The following method was used to induce stress in rats in an ergothioneine administration group (N=5) and a non-administration group (N=7). During the test period, the rats were kept under a 12-hour light-dark cycle. A Sprague-Dawley (SD) rat (8 weeks of age) was introduced into a cage where a larger and highly aggressive Brown-Norway (BN) rat was kept. These two rats were housed together for 10 minutes to make sure contact (direct contact) between the rats as the BN rat chasing after or hovering over the SD rat. Then, the SD rat and the BN rat were kept together for 24 hours in a breeding cage having compartments separated by a transparent perforated partition (indirect contact). Stress was induced in the SD rat in the same manner on the following day. A BM rat different from the one on the preceding day was used as a stressor. Stress was induced once a day for five consecutive days (from Monday to Friday), and then only indirect contact was allowed for two days on the weekend. This process was repeated for two cycles. Thus, stress induction under conditions combining direct contact and indirect contact was performed 10 times in total, and stress was induced for 12 days in total. The ergothioneine administration group was orally administered with L-ergothioneine from seven days before stress induction to the end of stress induction. L-ergothioneine was used in the form of an aqueous solution of L-ergothioneine dissolved in water (L-ergothioneine concentration: 0.25 mg/mL). The dosage of L-ergothioneine was about 20 mg per 1 kg body weight per day. The non-administration group was orally administered with water instead of the aqueous L-ergothioneine solution. The control (stress (−)) group (N=4) was orally administered with water without the stress induction. Electrodes were implanted in the rats to record brain waves, and brain waves during sleep and wakefulness were recorded for 24 hours after the end of stress induction. NREM sleep, REM sleep, and awake state were determined from the brain waves using biological signal analysis software Spike2 (available from CED), and the duration of episode of each of these states was calculated. Tukey's multiple comparisons test (*: p<0.05, **: p<0.005, ****: p<0.0001) was performed for significance testing.
# [1] = test system: male and female adults feeling stressed on a daily basis and dissatisfied with their sleep; test: Sleep quality evaluation test for humans (electroencephalograph SLEEPSCOPE); assay type: in vivo, human; conditions: 20 mg capsule daily for four weeks
# Method: (§1) In order to examine a sleep improving effect such as a sleep quality-improving effect of a supplement containing ergothioneine, male and female adults feeling stressed on a daily basis and dissatisfied with their sleep (test food group: 46 subjects; control food group: 46 subjects; 92 subjects in total) were subjected to a placebo-controlled, randomized, double-blind, parallel-group comparative study in which one capsule containing 20 mg of L-ergothioneine (test food) or one capsule not containing L-ergothioneine (control food) was ingested daily for four weeks. The sleep quality and sleep duration were evaluated by measuring brain waves during sleep using an electroencephalograph “SLEEPSCOPE” (product name) available from SleepWell Co., Ltd. A 2-sample t-test (**: p<0.01, *: p<0.05, t: p<0.1, vs. control food group) was performed for significance testing between the groups.
# Two types of food indistinguishable in terms of appearance, flavor, and the like were used for evaluation. • Test food: capsule containing a test substance (L-ergothioneine 20 mg) • Control food: capsule not containing a test substance
# Each type of food for evaluation contained raw materials such as dextrin, hydroxypropyl cellulose, carrageenan, potassium chloride, and titanium oxide, in addition to the test substance. The control food was produced using the same raw materials used in the test food, except that the test substance (L-ergothioneine) was not added.
# (§2) Brain waves during sleep were measured before the start of ingestion of the food for evaluation (pre-test) and after four weeks of ingestion of the food. The pre-test measurement of brain waves was regarded as “pre-examination”, and the measurement of brain waves after four weeks of ingestion of the food for evaluation was regarded as “week 4 examination”. The L-ergothioneine concentration (μM) in blood of each subject was also measured at the pre-examination and at the week 4 examination.
# NREM sleep is divided into three stages 1 to 3 according to sleep depth by measuring brain waves using an electroencephalograph “SLEEPSCOPE” available from SleepWell Co., Ltd.
# Ratio (%) of each sleep stage (NREM sleep stage 1, 2, or 3) to total sleep time; number of wake after sleep onset (frequency); number of wake after sleep onset in two hours before waking up (frequency), NREM sleep latency (min); 5 power in the first sleep cycle (delta power during NREM sleep in the first sleep cycle) (μV^2); and sleep efficiency (%).
# FIGS. 4 to 19 show results of main evaluation items for sleep quality (ratio of total time of each sleep stage to total sleep time; number of wake after sleep onset; number of wake after sleep onset in two hours before waking up; NREM sleep latency; 5 (delta) power in the first sleep cycle, and sleep efficiency) and sleep duration, as determined by measuring brain waves. FIGS. 4 to 19 show the measured values and the amount of change between measurements at the pre-examination and at the week 4 examination (**: p<0.01, *: p<0.05, †: p<0.1, vs. control food group). The amount of change is a value obtained by subtracting the measured value at the pre-examination from the measured value at the week 4 examination (“measured value at week 4 examination”−“measured value at pre-examination”). The results shown in FIG. 4 to FIG. 20 are presented in means±standard error for each group. A 2-sample t-test (**: p<0.01, *: p<0.05, †: p<0.1, vs. control food group) was performed for significance testing between the groups. In FIG. 4, FIG. 5, FIG. 6, FIG. 8, FIG. 10, FIG. 12, FIG. 14, FIG. 16, FIG. 18, and FIG. 20, “Pre.” refers to the pre-examination, and “Post.” refers to the week 4 examination. The solid lines represent the test food group, and the dashed lines represent the control food group. In FIG. 7, FIG. 9, FIG. 11, FIG. 13, FIG. 15, FIG. 17, and FIG. 19, the black bars represent the test food group, and the white bars represent the control food group.
# [2] = L-ergothioneine concentration in plasma of human subjects; assay type: in vivo; conditions: 20 mg capsule daily for four weeks, week 4 vs pre-examination and control food group, FIG. 20
# Method: as §1, §2
# [3] = light phase, vs non-administration group, FIG. 1
compound,measurement,setting,value
C[N+](C)(C)[C@@H](Cc1c[nH]c(=S)[nH]1)C(=O)[O-] [L-ergothioneine],fragmentation in REM sleep (number of sleep fragmentation episodes),"Sprague-Dawley (SD) rat; light phase, FIG. 2",reduced fragmentation to a level comparable to that of the control group
same,duration of episode of NREM sleep (NREM),Sprague-Dawley (SD) rat; [3],improved these phenomena to the level of the control group without stress induction
same,duration of episode of REM sleep (REM),Sprague-Dawley (SD) rat; [3],improved these phenomena to the level of the control group without stress induction
same,ratio of NREM sleep duration to total sleep time,Sprague-Dawley (SD) rat,increased the ratio of NREM sleep duration to total sleep time
same,sleep latency (latency from the start of the light phase to the first episode of NREM sleep),Sprague-Dawley (SD) rat; FIG. 3,to a level comparable to that of control group without stress induction; also recorded: exhibited an action to reduce an increase in sleep latency
same,number and duration of wake after sleep onset,[1],reduced the number and duration of wake after sleep onset
same,ratio of NREM sleep duration (total of stages 1 to 3) to total sleep time,[1]; vs control food group,increased the ratio of NREM sleep duration to total sleep time
same,sleep latency,[1]; vs control food group,"showed a reduced sleep latency, compared to the control food group"
same,ratio of NREM sleep stage 1 (N1) to total sleep time,"[1]; vs control food group, FIG. 4, 7",significantly suppressed
same,number of wake after sleep onset,"[1]; vs control food group, FIG. 8, 9",significantly suppressed sleep fragmentation
same,number of wake after sleep onset in two hours before waking up,"[1]; vs control food group, FIG. 10, 11",significantly suppressed sleep fragmentation
same,NREM sleep latency (time to reach deep sleep),"[1]; vs control food group, FIG. 12, 13",reduced an increase in time to reach deep sleep
same,5 power in the first sleep cycle,"[1]; vs control food group, FIG. 14, 15",increased 5 power in the first sleep cycle
same,sleep efficiency,"[1]; vs control food group, FIG. 16, 17",increased sleep efficiency
same,sleep duration,"[1]; vs control food group, FIG. 18, 19",increased sleep duration
same,L-ergothioneine concentration in plasma,[2],increased the L-ergothioneine concentration in plasma
